Key:
[1] = test system: mean blood pressure in rat; experiment: Acute intravenous hypotensive activity in anesthetized rats; type: in vivo, rat (male Wistar)
Experimental: Male Wistar rats were anesthetized with Pentobarbital (Nembutal, 60 mg/kg i.p.) and heparinized (5 mg/kg i.p.). After tracheotomy the right carotid was cannulated (catheter PE 50); blood pressure was measured with a pressure transducer (Statham P 23 db) and recorded on a polygraph (Beckman).
Animals received 0.5 and 1.5 mg/kg of the test compounds. Less than 100 μl of test compounds dissolved in 0.9% saline were injected in the jugular vein. Highly water insoluble compounds were suspended in 2% Tween-80. Injection of the vehicle alone had no detectable hypotensive effect.
Results presented are expressed as percent decrease in initial mean blood pressure (Mean±SEM).

[2] = test system: drug receptor sites associated with calcium channels; details: known calcium antagonists; cited from earlier work
[3] = test system: calcium channel binding site for [^3 H]-Nitrendipine (rat brain membranes); experiment: [^3 H]-Nitrendipine binding to rat brain membranes; design: species or system rat (male Wistar); details: Table 1a; for Specifically bound [^3 H]-Nitrendipine % of control value: compound concentration 1.0 μM; for Bound ^3 H at 1.0 μM / Bound ^3 H at 0.1 μM: ratio of [^3 H]-Nitrendipine bound at 1.0 and 0.1 μM compound
Experimental: (§1) Diltiazem hydrochloride was a generous gift from Goedecke A. G.
Suitable dilutions were made in 50 mM Tris-HCl buffer (pH 7.4) containing 150 mM NaCl and 1 mM CaCl2. The ethanol concentration in the final assay never exceeded 0.1%.
(§2) The purity of the radioligand and of the various agents tested was monitored by thin layer chromatography on silica gel plates.
(§3) The following procedure was adapted from Bellemann et al (Proc. Nat. Acad. Sci. 80, 2356, 1983), and Gould et al (Proc. Nat. Acad. Sci. 79, 3656, 1982).
(§4) Adult male Wistar rats weighing 250-300 g were anesthetized with carbon dioxide prior to decapitation. The brain was removed then immersed in ice-cold 0.32M sucrose and washed 2-3 times with fresh solution. Cerebral cortex was minced and homogenized (Potter-Elvehjem homogenizer) in 10 volumes of ice-cold sucrose solution. The homogenate was centrifuged (4° C.) at 1000×g for 15 minutes. The resulting supernatant was then centrifuged at 90000×g (30 minutes) and the pellet was washed twice with 20 ml ice-cold 50 mM Tris-HCl pH 7.4.
(§5) The final pellet was resuspended in 50 mM Tris-HCl pH 7.4/150 mM NaCl/1 mM CaCl2 to give a protein concentration of 4 mg/ml.
(§6) The membrane suspension was kept on ice until used. Binding assays were performed in subdued light to prevent dihydropyridine breakdown. Membrane protein (400 μg/tube) was incubated in 50 mM Tris-HCl buffer (pH 7.4)/150 mM NaCl/1 mM CaCl2 with the indicated concentrations of radioligand and test compounds or known calcium antagonists, in a total volume of 2 ml. After the indicated time intervals, the reaction was terminated by rapid filtration through Whatman GF/B glass fiber filters (2.4 cm diameter) on a Millipore filter holder. The assay tube was rinsed with 2 ml ice-cold 50 mM Tris-HCl pH (7.4) and the precipitate was further washed with 2×5 ml of the same buffer.
(§7) Filters were dried under a heat lamp and were extracted with 10 ml of liquid scintillation cocktail (Toluene/Triton X-100, 2/1 containing 4 g Omnifluor/1) prior to tritium determination at 48% counting efficiency.
(§8) Assays were performed in duplicate or triplicate.
(§9) Data were expressed as percent specific [^3 H]-Nitrendipine binding relative to the established control value.
(§10) Compound activity in the [^3 H]-Nitrendipine binding assay was evaluated by using the following criteria:
(§11) 1. [^3 H]-Nitrendipine binding at 1.0 μM compound final concentration was either below 95% or above 105% of the control value determined in absence of compound.
2. […] This ratio is indicative of a dose response relationship within the compound concentration range tested, when the value differs appreciably from 1.0.

[4] = test system: rat trachea contraction induced by KCl depolarization; experiment: KCl-induced rat trachea contraction; design: species or system rat (male SHR, Okamoto-Aoki); details: for activity at 1 µM: Rattus norvegicus, 40 min, read-out: Contraction (% max.)
Experimental: Spontaneously hypertensive male rats (SHR) Okamoto-Aoki Strain, weighing 300-400 g were used in this study. They were killed by bleeding after Pentobarbital anesthesia (Nembutal, Abbott Co, 40 mg/kg). Their entire trachea was quickly removed and dissected free of fat and connective tissue in Krebs-Ringer solution. A strip (4 mm×40 mm), obtained by spirally cutting the trachea, was immediately suspended in a 50 ml Krebs-Ringer solution and continuously bubbled with a O2 /CO2 (95/5) mixture. Bath temperature was maintained at 37±1° C. The composition (mM) of the Krebs-Ringer solution modified by Nghiem, was as follows: NaCl, (118.0); KCl, (4.7); CaCl2, (2.5); MgCl2, (1.18); NaHCO3, (12.5); KH2 P04, (1.18); glucose, (5.5) in bidistilled water (pH 7.4). Each strip was equilibrated under initial tension (1.5-2 g) for 1-2 hours and the bath solution changed every 30 min. A contractile or relaxant response was isometrically measured with a force-displacement transducer (Ugo-Basile) and recorded on a polygraph (Beckman).
After equilibration, KCl was added to the bath at 65 mM final concentration. This concentration produced maximum trachea contraction. Under these conditions, a plateau phase showing a tonic sustained contraction was reached within 30 minutes. Drugs were added 30 minutes after the plateau phase has been reached (final concentration=1.0 μM). […] Recordings of the residual trachea contraction were made 40 minutes after drug addition to the bathing fluid. The initial KCl induced contraction was taken as the maximum KCl response (100%). Results were expressed as % of maximal contraction. Nifedipine, Prenylamine, Flunarizine and Diltiazem were used as reference standards to validate this assay.
All 1,3-diphosphonates and drugs were dissolved in saline (0.9% NaCl) except when water insoluble, then the compounds were dissolved in 2% ethanol. The final concentration of ethanol used has been shown not to interfere with the assay.
Results are expressed as mean values±SEM, the Student's t-test was used for statistical analysis.

[5] = test system: [^3 H]-PN-200 110 (dihydropyridine) binding site of calcium channel, rat brain membranes; experiment: [^3 H]-PN-200 110 binding to rat brain membranes; design: species or system rat (male Wistar); details: Table 1b; for Specifically bound [^3 H]-PN-200 110 % of control value: compound concentration 1.0 μM; for Bound ^3 H at 1.0 μM / Bound ^3 H at 0.1 μM: ratio of [^3 H]-PN-200 110 bound at 1.0 and 0.1 μM compound
Experimental: as §1
Water insoluble compounds were dissolved in absolute ethanol to give 10 mM or 2.5 mM stock solutions. Suitable dilutions were made in 50 mM Tris-HCl buffer (pH 7.4) containing 150 mM NaCl and 1 mM CaCl2. The ethanol concentration in the final assay never exceeded 0.1%.
as §2, §3, §4, §5, §6, §7, §8, §9, §10, §11
2. The ratio obtained by dividing the amount of specifically found [^3 H]-Nitrendipine at 1.0 μM compound final concentration by the value obtained at 0.1 μM test compound, was smaller than 0.9 or greater than 1.1. This ratio is indicative of a dose response relationship within the compound concentration range tested, when the value differs appreciably from 1.0.
Note: In some experiments [^3 H]-PN200 110, a new and commercially available specific dihydropyridine was used instead of [^3 H]-Nitrendipine.

[6] = Rattus norvegicus, iv, read-out: Decrease in mean blood pressure (% pretest)

| SMILES | Specifically bound [^3 H]-Nitrendipine % of control value [3] | Bound ^3 H at 1.0 μM / Bound ^3 H at 0.1 μM [3] | inhibition in vivo at 0.5 mg/kg [1, 6] | inhibition in vivo at 1.5 mg/kg [1, 6] | other results |
| --- | --- | --- | --- | --- | --- |
| C[C@H](CS)C(=O)N1CCC[C@H]1C(=O)O [Captopril, reference compound] |  |  |  |  | inhibition in vivo at 1 mg/kg [1, 6]: 0% |
| C(=C\c1ccccc1)/CN1CCN(C(c2ccccc2)c2ccccc2)CC1 [Cinnarizine] |  |  |  |  | effect on [^3 H]-Nitrendipine binding (in words) [2]: reduce [^3 H]-Nitrendipine binding affinity |
| CCOP(=O)(CC(Cc1ccccc1)CP(=O)(OCC)OCC)OCC [Compound 25, Tetraethyl 2-benzyl-1,3-propylidenediphosphonate] | 100 % of control value | 1.060 | 23.2 ± 2.2% | 41.4 ± 1% | activity at 1 µM [4]: 53 ± 2.5%; activity on KCl-induced trachea contraction (in words) ([4]; final concentration 1.0 μM): potent pharmacological activity |
| CCOP(=O)(CC(CCc1ccccc1)CP(=O)(OCC)OCC)OCC [Compound 26] | 89 % of control value | 1.018 | 18.1 ± 3% | 41.6 ± 1.3% |  |
| CCOP(=O)(CC(CCCc1ccccc1)CP(=O)(OCC)OCC)OCC [Compound 27] | 95 % of control value | 0.982 | 25.6 ± 2.2% | 35 ± 4.7% |  |
| CCOP(=O)(CC(Cc1ccc(Cl)cc1)CP(=O)(OCC)OCC)OCC [Compound 30] | 99 % of control value | 1.003 | 17% | 34.4 ± 5.1% | activity at 1 µM [4]: 90% |
| CCOP(=O)(CC(CCOc1ccccc1)CP(=O)(OCC)OCC)OCC [Compound 33] |  |  | 13.2% | 16 ± 0.6% |  |
| CCOP(=O)(CC(Cc1cc(OC)c(OC)c(OC)c1)CP(=O)(OCC)OCC)OCC [Compound 36] | 100 % of control value | 0.966 | 39.9 ± 1.6% |  |  |
| CCCOP(=O)(CC(CCOc1ccccc1)CP(=O)(OCCC)OCCC)OCCC [Compound 52] |  |  |  |  | Specifically bound [^3 H]-PN-200 110 % of control value [5]: 9 % of control value; Bound ^3 H at 1.0 μM / Bound ^3 H at 0.1 μM [5]: 0.227 |
| CCCCOP(=O)(CC(CCOc1cc(C)ccc1C)CP(=O)(OCCCC)OCCCC)OCCCC [Compound 77] |  |  |  |  | Specifically bound [^3 H]-PN-200 110 % of control value [5]: 19 % of control value; Bound ^3 H at 1.0 μM / Bound ^3 H at 0.1 μM [5]: 0.337 |
| CCCCOP(=O)(CC(Cc1cc(OC)c(OC)c(OC)c1)CP(=O)(OCCCC)OCCCC)OCCCC [Compound 82] | 90 % of control value | 0.886 | 40.1 ± 3.2% |  | activity at 1 µM [4]: 80 ± 4%; hypotensive activity (in words) ([1]; acute i.v., Table 4): hypotensive activity superior to that of classical hypotensive drugs and of the calcium antagonists used as references |
| CCCCOP(=O)(CC(CCCc1ccc([N+](=O)[O-])cc1[N+](=O)[O-])CP(=O)(OCCCC)OCCCC)OCCCC [Compound 98] |  |  |  |  | Specifically bound [^3 H]-PN-200 110 % of control value [5]: 19 % of control value; Bound ^3 H at 1.0 μM / Bound ^3 H at 0.1 μM [5]: 0.780 |
